Measured values reported in patent US8921421B2, “Inhibitors of dimethylarginine dimethylaminohydrolase” (Christian-Albrechts-Universitaet Zu Kiel, priority 2008, dated 2014).

Columns and labels:
Type in all cases: biochemical
hDDAH-1 [1] = molecular target: T1, hDDAH-1 (Homo sapiens (Human), UniProt O94760); experiment: Determination of the Ki value (plate-reader assay); settings: five NMMA concentrations (50-1250 μM), recombinant hDDAH-1; determined at least twice
Description: The Ki value was determined as described for the IC50 value, with the difference that five different NMMA concentrations (50, 100, 300, 750 and 1250 μM) were used. The incubations were carried out such that each NMMA concentration was in each case incubated twice with each of the five inhibitor concentrations. On top of this, incubations using the different NMMA concentrations were carried out without added inhibitor.
For each inhibitor concentration, using SigmaPlot 8.0 (SPSS Inc., Chicago, USA) the respective apparent Km value and Vmax were determined. Via secondary plotting of the inhibitor concentrations versus Km/Vmax the Ki value was determined by extrapolation of the least-squares lines onto the abscissa.
Derivatisation was carried out on particularly heat-stable 96-well microtiter plates. 200 μl of the Colder reagent was added to the samples (150 μl) and to prevent evaporation, the plate was closed with a heat-stable adhesive film (Nunc, Wiesbaden, Germany). Colour formation then took place in the drying oven at 95° C. for 15-20 minutes. Before photometric measurements were taken, there was a wait until the plate had reached room temperature and then the colour intensity at 540.5 nm (Carry 50 microplate reader, Varian, Darmstadt, Germany) was measured. Measurement took place during 20 minutes since the reaction product is not stable (Knipp and Vasak 2000).

hDDAH-1 [2] = molecular target: T1, hDDAH-1; experiment: In vitro hDDAH-1 assay (HPLC), inhibition at 1 mM inhibitor; settings: inhibitor 1 mM, NMMA 200 μM, 2 μg hDDAH-1, 30 min 37° C.; MV±SD of at least four incubations
Description: This assay was used to determine the inhibiting effect of the inhibitors in a concentration of 1 mM. A standard incubation mixture consisted of 75 μl of 50 mM potassium phosphate buffer pH 7.4 and contained NMMA in a concentration of 200 μM. The inhibitors were used in final concentrations of 1 mM. By adding 2 μg of hDDAH-1, the reaction was started and the samples were incubated for 30 minutes at 37° C. in, a shaking water bath. The reaction was then stopped by adding 75 μl of acetonitrile, the samples were shaken for 5′ minutes and centrifuged (12,000 g, 5 min). The supernatant was added to the HPLC.
In addition, three incubations without added inhibitor were carried out in each case and worked up as specified above. The L-citrulline concentration detected in the samples was set at 100% and the amount of L-citrulline formed in the samples with added inhibitor was referred to this value.
For analysing the samples of the in vitro hDDAH-1 assay (HPLC), o-PA pre-column derivatisation was used with subsequent fluorescence detection of the amino acids. • HPLC plant: Waters Autosampler 717plus, Waters 600 Controller, Waters 600 Pump, Waters Fluorescence Detector 470 and EZChrom Elite Client/Server Measurement and evaluation software (version 2.8.3) • Stationary phase: NovaPak RP-18 column 4 μm (4×150 mm, VDS Optilab) pre-column: Phenomenex C18 (4×3.0 mm) • Temperature: 30° C.
• Detection: Fluorescence: λex: 338 nm; 425 nm. • Injection volume: 10 μl • Derivat. reagent: 50 mg o-PA dissolved in 1 ml of methanol • +9 ml 0.2 M of potassium borate buffer pH 9.4 • +53 μl 2-mercaptoethanol • Derivatisation: The auto sampler was programmed such that 10 μl of the sample were mixed with 14 μl of the derivatisation reagent and could react for 3 minutes at room, temperature prior to injection. Retention times: • L-citrulline 12.2±0.3 min • NMMA 15.8±0.4 min • Methylamine 23.4±0.1 min

hDDAH-1 [3] = molecular target: T1, hDDAH-1; experiment: Determination of the IC50 value (plate-reader assay); settings: NMMA 300 μM, 4 μg recombinant hDDAH-1, 30 min 37° C.; determined at least twice
Description: The samples for the plate-reader assay were incubated directly on a 96-well microtiter plate. An incubation mixture consisted of 150 μl of 50 mM potassium phosphate buffer pH 7.4 with NMMA in a final concentration of 300 μM. The inhibitor was added in five different concentrations and the reaction was started by adding 4 μg of recombinant hDDAH-1. In addition, two mixtures without added inhibitor were incubated. The plate was closed with a lid and incubated for 30 minutes on a plate incubator (shaker DTS-4, LTF-Labortechnik GmbH, Wasserburg, Germany) at 37° C. The reactions were stopped using 200 μl of the Colder reagent and the citrulline that had formed was derivatised (see derivatisation for plate-reader assay). The IC50 value was then calculated by means of SigmaPlot 8.0 (SPSS Chicago, USA). Derivatisation was carried out on particularly heat-stable 96-well microtiter plates. 200 μl of the Colder reagent was added to the samples (150 μl) and to prevent evaporation, the plate was closed with a heat-stable adhesive film (Nunc, Wiesbaden, Germany). Colour formation then took place in the drying oven at 95° C. for 15-20 minutes. Before photometric measurements were taken, there was a wait until the plate had reached room temperature and then the colour intensity at 540.5 nm (Carry 50 microplate reader, Varian, Darmstadt, Germany) was measured.

T1 sequence (O94760 whole entry): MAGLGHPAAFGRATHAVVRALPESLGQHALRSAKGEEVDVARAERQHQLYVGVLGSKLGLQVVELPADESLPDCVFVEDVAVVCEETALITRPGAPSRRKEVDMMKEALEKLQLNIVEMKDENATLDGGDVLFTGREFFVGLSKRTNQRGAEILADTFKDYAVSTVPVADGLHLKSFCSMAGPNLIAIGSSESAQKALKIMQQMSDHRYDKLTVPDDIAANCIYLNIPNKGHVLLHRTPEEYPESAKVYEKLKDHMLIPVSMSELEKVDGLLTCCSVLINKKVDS

| Ki (hDDAH-1 [1]) | inhibition at 1000 µM (hDDAH-1 [2]) | IC50 (hDDAH-1 [3]) | Structure (SMILES) |
| --- | --- | --- | --- |
| 18 ± 6 µM | 80 ± 5% | 70 ± 16 µM | COCC/N=C(/N)NCCCCN [Substance 3, N-(4-aminobutyl)-N′-(2-methoxyethyl)guanidine bis(trifluoracetate)] |
|  | 40 ± 6% |  | C=CCC(=N)NCCCCN [Substance 5, N-(4′-aminobutyl)but-3-enamidine bis(trifluoracetate)] |

| Structure (SMILES) | Ki (hDDAH-1 [1]) | inhibition at 1000 µM (hDDAH-1 [2]) | IC50 (hDDAH-1 [3]) |
| --- | --- | --- | --- |
| COCCNC(=N)NCCC[C@H](N)C(=O)O [Substance L-257, N^ω-(2-methoxyethyl)-L-arginine, reference compound] |  | 89 ± 2% |  |
